Laboratory results: patent publication US20090054392A1, “NAPHTHYLPYRIMIDINE, NAPHTHYLPYRAZINE AND NAPHTHYLPYRIDAZINE ANALOGS AND THEIR USE AS AGONISTS OF THE WNT-BETA-CATENIN CELLULAR MESSAGING SYSTEM” (Wyeth, priority 2007, published 2009)
pEC50: −log10 of the molar value.

Tested on: Dkk1-LRP5-TCF-Luciferase
Assay: Functional Dkk1-LRP5-TCF-Luciferase Assay in U2OS Cells
Settings: for fold induction at 2 µM / fold induction at 20 µM / pEC50: Homo sapiens, U2OS; for fold induction at 2 µM: read-out: B = TCF ACTIVITY/DMSO CONTROL Fold induction @ 2.0 uM, 2.0 uM compound; for fold induction at 20 µM: read-out: C = TCF ACTIVITY/DMSO CONTROL Fold induction @ 20.0 uM, 20.0 uM compound; for A = MAX FOLD Induction/DMSO CONTROL: maximum fold induction over DMSO control

| pEC50 | A = MAX FOLD Induction/DMSO CONTROL [fold] | SMILES | fold induction at 2 µM | fold induction at 20 µM |
| --- | --- | --- | --- | --- |
|  |  | CC(C)(C)OC(=O)N1CCN(c2nccc(-c3ccc4ccccc4c3)n2)CC1 [tert-butyl 4-[4-(2-naphthyl)pyrimidin-2-yl]piperazine-1-carboxylate] | 0.98 | 1.94 |
| 4.90 | 1.640 | CCNC(=O)N1CCCN(c2nccc(-c3ccc4ccccc4c3)n2)CC1 [N-ethyl-4-[4-(2-naphthyl)pyrimidin-2-yl]-1,4-diazepane-1-carboxamide] |  | 2.58 |
| 4.97 | 3.890 | CC(C)(C)NCC1CCN(c2nccc(-c3ccc4ccccc4c3)n2)CC1 [2-methyl-N-({1-[4-(2-naphthyl)pyrimidin-2-yl]piperidin-4-yl}methyl)propan-2-amine] | 1.49 | 5.76 |
|  |  | c1ccc2cc(-c3ccnc(N4CCCCCC4)n3)ccc2c1 [1-[4-(2-naphthyl)pyrimidin-2-yl]azepane] | 1.54 |  |
|  |  | O=C(NCC1CCN(c2nccc(-c3ccc4ccccc4c3)n2)CC1)N1CCCC1 [N-({1-[4-(2-naphthyl)pyrimidin-2-yl]piperidin-4-yl}methyl)pyrrolidine-1-carboxamide] | 0.91 | 1.13 |
|  |  | CN(c1nccc(-c2ccc3ccccc3c2)n1)C1CCN(C(=N)N)CC1 [4-{methyl[4-(2-naphthyl)pyrimidin-2-yl]amino}piperidine-1-carboximidamide] | 1.74 |  |
|  |  | N#Cc1ccc(C(=O)N[C@H]2CCN(c3nccc(-c4ccc5ccccc5c4)n3)C2)cc1 [4-cyano-N-{(3S)-1-[4-(2-naphthyl)pyrimidin-2-yl]pyrrolidin-3-yl}benzamide] | 0.84 | 1.24 |
| 5.48 | 2.360 | COC(=O)C(N)C1CCN(c2nccc(-c3ccc4ccccc4c3)n2)CC1 (stereo not drawn) [methyl amino{1-[4-(2-naphthyl)pyrimidin-2-yl]piperidin-4-yl}acetate] |  | 0.03 |
| 5.48 | 4.200 | CCNCC1CCN(c2nccc(-c3ccc4ccccc4c3)n2)CC1 [N-({1-[4-(2-naphthyl)pyrimidin-2-yl]piperidin-4-yl}methyl)ethanamine] | 1.33 | 0.01 |
| 5.26 | 2.428 | CC(=O)N1CCC(Nc2nccc(-c3ccc4ccccc4c3)n2)CC1 [N-(1-acetylpiperidin-4-yl)-4-(2-naphthyl)pyrimidin-2-amine] | 1.09 | 2.53 |
| 5.00 | 2.285 | CC(=O)N(C)[C@@H]1CCN(c2nccc(-c3ccc4ccccc4c3)n2)C1 [N-methyl-N-{(3R)-1-[4-(2-naphthyl)pyrimidin-2-yl]pyrrolidin-3-yl}acetamide] | 1.55 | 2.71 |
|  |  | CCC(=O)N(C)CCN(C)[C@@H]1CCN(c2nccc(-c3ccc4ccccc4c3)n2)C1 [N-methyl-N-[2-(methyl{(3R)-1-[4-(2-naphthyl)pyrimidin-2-yl]pyrrolidin-3-yl}amino)ethyl]propanamide] |  | 2.5 |
|  |  | CC(C)NC(=O)NCCN1CCN(c2nccc(-c3ccc4ccccc4c3)n2)CC1 [N-isopropyl-N′-(2-{4-[4-(2-naphthyl)pyrimidin-2-yl]piperazin-1-yl}ethyl)urea] | 1.06 | 0.1 |
|  |  | O=CNCC1CCN(c2nccc(-c3ccc4ccccc4c3)n2)C1 (stereo not drawn) [N-({1-[4-(2-naphthyl)pyrimidin-2-yl]pyrrolidin-3-yl}methyl)formamide] | 1.09 | 1.68 |
| 5.91 | 2.820 | Cc1ccc2cc(-c3ccnc(N4CCC(CN)CC4)n3)ccc2c1 [1-{1-[4-(6-methyl-2-naphthyl)pyrimidin-2-yl]piperidin-4-yl}methanamine] | 2.88 |  |
| 5.97 | 3.640 | NC[C@H]1CCCN(c2nccc(-c3ccc4ccccc4c3)n2)CC1 [1-{(4S)-1-[4-(2-naphthyl)pyrimidin-2-yl]azepan-4-yl}methanamine] | 3.86 |  |
|  |  | CC(C)(C)OC(=O)N1CCN(C[C@@H]2CCN(c3nccc(-c4ccc5ccccc5c4)n3)C2)CC1 [tert-butyl 4-({(3S)-1-[4-(2-naphthyl)pyrimidin-2-yl]pyrrolidin-3-yl}methyl)piperazine-1-carboxylate] | 1.16 | 0.85 |
|  | 1.112 | NC(=O)NCCC1CCN(c2nccc(-c3ccc4ccccc4c3)n2)CC1 [N-(2-{1-[4-(2-naphthyl)pyrimidin-2-yl]piperidin-4-yl}ethyl)urea] |  |  |
|  | 1.520 | CN(C)C(=O)N1CCCN(c2nccc(-c3ccc4ccccc4c3)n2)CC1 [N,N-dimethyl-4-[4-(2-naphthyl)pyrimidin-2-yl]-1,4-diazepane-1-carboxamide] | 1.2 | 2.26 |
|  |  | COC(=O)C(NC(=O)OC(C)(C)C)=C1CCN(c2nccc(-c3ccc4ccccc4c3)n2)CC1 [methyl [(tert-butoxycarbonyl)amino]{1-[4-(2-naphthyl)pyrimidin-2-yl]piperidin-4-ylidene}acetate] | 1.01 | 1.24 |
|  |  | c1ccc(CN2CCC(CNc3nccc(-c4ccc5ccccc5c4)n3)CC2)cc1 [N-[(1-benzylpiperidin-4-yl)methyl]-4-(2-naphthyl)pyrimidin-2-amine] |  | 1.49 |
|  |  | CC(C)N(C)CCN(C)[C@@H]1CCN(c2nccc(-c3ccc4ccccc4c3)n2)C1 [N-isopropyl-N,N′-dimethyl-N′-{(3R)-1-[4-(2-naphthyl)pyrimidin-2-yl]pyrrolidin-3-yl}ethane-1,2-diamine] | 2.2 |  |
| 6.34 |  | NC[C@H]1CC[C@H](Oc2nccc(-c3ccc4ccccc4c3)n2)CC1 [1-(trans-4-{[4-(2-naphthyl)pyrimidin-2-yl]oxy}cyclohexyl)methanamine] |  |  |
|  |  | O=[N+]([O-])CC1(O)CCN(c2nccc(-c3ccc4ccccc4c3)n2)CC1 [1-[4-(2-naphthyl)pyrimidin-2-yl]-4-(nitromethyl)piperidin-4-ol] | 1.19 | 1.49 |
|  |  | NCC1CCN(c2nccc(-c3ccc4cc(-c5ccccc5)ccc4c3)n2)CC1 [1-{1-[4-(6-phenyl-2-naphthyl)pyrimidin-2-yl]piperidin-4-yl}methanamine] | 1.63 |  |
|  |  | c1cnc(N2CCN(c3nccc(-c4ccc5ccccc5c4)n3)CC2)nc1 [4-(2-naphthyl)-2-(4-pyrimidin-2-ylpiperazin-1-yl)pyrimidine] | 1.02 | 1.24 |
|  |  | CCN(CC)CC1CCN(c2nccc(-c3ccc4ccccc4c3)n2)CC1 [N-ethyl-N-({1-[4-(2-naphthyl)pyrimidin-2-yl]piperidin-4-yl}methyl)ethanamine] | 1.14 | 0.02 |
|  |  | NCC1(CN)C[C@@H]2C[C@H]1CN2c1nccc(-c2ccc3ccccc3c2)n1 [{(1S,4R)-2-[4-(2-naphthyl)pyrimidin-2-yl]-2-azabicyclo[2.2.1]heptane-5,5-diyl}dimethanamine] | 1.2 |  |
